From ChEMBL document CHEMBL1817597, “Antifungal thiopeptide cyclothiazomycin B1 exhibits growth inhibition accompanying morphological changes via binding to fungal cell wall chitin” (Bioorg Med Chem, 2011)
In brackets after ≈: the same amount, converted by molar mass. Activity calls are given as the source filed them. No cut-off for these calls is given here.

Assays:
Mucor mucedo [1] = experiment: Antimicrobial activity against Mucor mucedo IFO 7684 after 24 hrs by broth microdilution method; format: functional; conditions: IFO 7684, 24 h
Fusarium solani [2] = experiment: Antimicrobial activity against Fusarium solani NBRC 8505 after 24 hrs by broth microdilution method; format: functional; conditions: NBRC 8505, 24 h
Fusarium avenaceum [3] = experiment: Antimicrobial activity against Fusarium avenaceum NBRC 33237 after 24 hrs by broth microdilution method; format: functional; conditions: NBRC 33237, 24 h
Saccharomyces cerevisiae = experiment: Antimicrobial activity against Saccharomyces cerevisiae IFO 0203 after 24 hrs by broth microdilution method; format: functional, organism-based
Aspergillus nidulans [4] = experiment: Antimicrobial activity against Aspergillus nidulans FGSC A4 after 24 hrs by broth microdilution method; format: functional; conditions: FGSC A4, 24 h
Mucor mucedo [5] = experiment: Binding affinity to cell wall polysaccharides in Mucor mucedo IFO 7684 at 6.55 uM after 30 mins by HPLC analysis
Rhizopus arrhizus = experiment: Antimicrobial activity against Rhizopus oryzae IFO 4766 at <6.55 uM after 24 hrs by broth microdilution method; format: functional, organism-based
Fusarium avenaceum [6] = experiment: Antimicrobial activity against Fusarium avenaceum NBRC 33237 at <6.55 uM after 24 hrs by broth microdilution method; format: functional, organism-based
Penicillium chrysogenum = experiment: Antimicrobial activity against Penicillium chrysogenum IFO 4626 at <6.55 uM after 24 hrs by broth microdilution method; format: functional, organism-based
Mucor mucedo [7] = experiment: Antifungal activity against Mucor mucedo IFO 7684 under hypoosmotic shock assessed as increase of fragility of organism at 0.026 uM after 24 hrs measured after distilled water treatment for 10 mins by microscopic analysis; format: functional, organism-based
[8] = system: Fusarium sporotrichioides; experiment: Antimicrobial activity against Fusarium sporotrichioides NBRC 33236 at <6.55 uM after 24 hrs by broth microdilution method; format: functional
Fusarium solani [9] = experiment: Antimicrobial activity against Fusarium solani NBRC 8505 at <6.55 uM after 24 hrs by broth microdilution method; format: functional, organism-based
Proteus vulgaris = experiment: Antimicrobial activity against Proteus vulgaris IFO 3851 after 24 hrs by broth microdilution method; format: functional, organism-based
Neurospora sitophila [10] = experiment: Antimicrobial activity against Neurospora sitophila DSM 1130 at <6.55 uM after 24 hrs by broth microdilution method; format: functional
Mucor mucedo [11] = experiment: Inhibition of total protein synthesis in Mucor mucedo IFO 7684 assessed as [U-14C]-leucine uptake into acid-insoluble fractions at 0.13 uM after 25 mins by liquid scintillation counting relative to control; format: functional; conditions: IFO 7684, 25 min
Fusarium oxysporum [12] = experiment: Antimicrobial activity against Fusarium oxysporum NBRC 30700 after 24 hrs by broth microdilution method; format: functional; conditions: NBRC 30700, 24 h
Fusarium oxysporum [13] = experiment: Induction of morphological changes in Fusarium oxysporum NBRC 5942 assessed as thickening of hyphae at MIC after 24 hrs by microscopic analysis; format: functional, organism-based
Fusarium oxysporum [14] = experiment: Antimicrobial activity against Fusarium oxysporum IFO 7152 at <6.55 uM after 24 hrs by broth microdilution method; format: functional, organism-based
Mucor mucedo [15] = experiment: Induction of morphological changes in Mucor mucedo IFO 7684 assessed as abnormal hyphae branching at MIC after 24 hrs by microscopic analysis; format: functional, organism-based
Fusarium graminearum [16] = experiment: Antimicrobial activity against Gibberella zeae NBRC 8850 after 24 hrs by broth microdilution method; format: functional; conditions: NBRC 8850, 24 h
Mucor mucedo [17] = experiment: Effect on cell wall re-generation in Mucor mucedo IFO 7684 spheroplasts under hyperosmotic condition at 0.026 uM after 18 hrs by microscopic analysis; format: functional
Staphylococcus aureus = experiment: Antimicrobial activity against Staphylococcus aureus IFO 12732 after 24 hrs by broth microdilution method; format: functional, organism-based
Neurospora sitophila [18] = experiment: Antimicrobial activity against Neurospora sitophila DSM 1130 after 24 hrs by broth microdilution method; format: functional; conditions: DSM 1130, 24 h
NIH3T3 = experiment: Cytotoxicity against mouse NIH/3T3 cells up to 65.5 uM after 24 hrs by Alamar blue assay; format: cell-based; conditions: nih3t3, 24 h
Mucor mucedo [19] = experiment: Inhibition of RNA synthesis in Mucor mucedo IFO 7684 assessed as [8-14C]-adenine uptake into acid-insoluble fractions at 0.13 uM after 25 mins by liquid scintillation counting; format: functional, organism-based
Fusarium solani [20] = experiment: Antimicrobial activity against Fusarium solani NBRC 5899 after 24 hrs by broth microdilution method; format: functional; conditions: NBRC 5899, 24 h
Pseudomonas aeruginosa = experiment: Antimicrobial activity against Pseudomonas aeruginosa IFO 3080 after 24 hrs by broth microdilution method; format: functional, organism-based
Mucor mucedo [21] = experiment: Induction of morphological changes in Mucor mucedo IFO 7684 assessed as thickening of hyphae at 0.026 uM after 24 hrs by microscopic analysis in presence of 100 uM of PKA inhibitor H8; format: functional, organism-based
Aspergillus niger [22] = experiment: Antimicrobial activity against Aspergillus niger ATCC 6275 after 24 hrs by broth microdilution method; format: functional; conditions: ATCC 6275, 24 h
Fusarium fujikuroi = experiment: Antimicrobial activity against Gibberella fujikuroi NBRC 6349 after 24 hrs by broth microdilution method; format: functional; conditions: NBRC 6349, 24 h
Bacillus licheniformis = experiment: Antimicrobial activity against Bacillus licheniformis IFO 12107 after 24 hrs by broth microdilution method; format: functional, organism-based
[23] = Binding affinity to chitin at 6.55 uM after 30 mins by HPLC analysis
Aspergillus fumigatus = experiment: Antimicrobial activity against Aspergillus fumigatus IFO 5840 at <6.55 uM after 24 hrs by broth microdilution method; format: functional, organism-based
Mucor mucedo [24] = experiment: Antimicrobial activity against Mucor mucedo IFO 7684 after 24 hrs by broth microdilution method in presence of 100 uM of PKA activator dbcAMP; format: functional; conditions: IFO 7684, 24 h
Aspergillus niger [25] = experiment: Antimicrobial activity against Aspergillus niger ATCC 6275 at <6.55 uM after 24 hrs by broth microdilution method; format: functional, organism-based
Fusarium graminearum [26] = experiment: Antimicrobial activity against Gibberella zeae NBRC 8850 at <6.55 uM after 24 hrs by broth microdilution method; format: functional, organism-based
Fusarium oxysporum [27] = experiment: Antimicrobial activity against Fusarium oxysporum NBRC 5942 at <6.55 uM after 24 hrs by broth microdilution method; format: functional, organism-based
Fusarium oxysporum [28] = experiment: Binding affinity to cell wall polysaccharides in Fusarium oxysporum NBRC 5942 at 6.55 uM after 30 mins by HPLC analysis
Mucor mucedo [29] = experiment: Effect on cell wall re-generation in Mucor mucedo IFO 7684 spheroplasts at 0.026 uM after 12 hrs by microscopic analysis; format: functional
Mucor javanicus = experiment: Antimicrobial activity against Mucor javanicus IFO 4569 at <6.55 uM after 24 hrs by broth microdilution method; format: functional
Bacillus subtilis = experiment: Antimicrobial activity against Bacillus subtilis IFO 3007 after 24 hrs by broth microdilution method; format: functional, organism-based
[30] = system: Fusarium sporotrichioides; experiment: Antimicrobial activity against Fusarium sporotrichioides NBRC 33236 after 24 hrs by broth microdilution method; format: functional; conditions: NBRC 33236, 24 h
Fusarium solani [31] = experiment: Antimicrobial activity against Fusarium solani NBRC 5899 at <6.55 uM after 24 hrs by broth microdilution method; format: functional, organism-based
Mucor mucedo [32] = experiment: Induction of morphological changes in Mucor mucedo IFO 7684 assessed as swelling of hyphae at tips at MIC after 24 hrs by microscopic analysis; format: functional, organism-based
Aspergillus nidulans [33] = experiment: Antimicrobial activity against Aspergillus nidulans FGSC A4 at <6.55 uM after 24 hrs by broth microdilution method; format: functional, organism-based

C=C1NC(=O)[C@H]2CSC(=N2)c2csc(n2)-c2ccc3c(n2)[C@H](C)NC(=O)[C@@H]2CCCN2C(=O)/C(=C/C)NC(=O)CNC(=O)[C@H](CCCNC(=N)N)NC(=O)C(C)(NC(=O)/C(=C/C)NC(=O)C2CSC(=N2)[C@H](CC(N)=O)NC3=O)SC[C@@H](C(=O)O)NC(=O)[C@H]2CSC(=N2)c2csc(n2)-c2csc1n2 [CYCLOTHIAZOMYCIN B1]
MIC (Mucor mucedo [1]): 0.039 µg/mL (≈ 0.0255 µM)
MIC (Fusarium solani [2]): 0.25 µg/mL (≈ 0.164 µM)
MIC (Fusarium avenaceum [3]): 0.25 µg/mL (≈ 0.164 µM)
Activity (Saccharomyces cerevisiae): inactive
MIC (Aspergillus nidulans [4]): > 1000 µg/mL
Activity (Mucor mucedo [5]): inactive
Activity (Rhizopus arrhizus): inactive
Activity (Fusarium avenaceum [6]): inactive
Activity (Penicillium chrysogenum): inactive
Activity (Mucor mucedo [7]): Active
Activity [8]: inactive
Activity (Fusarium solani [9]): inactive
Activity (Proteus vulgaris): inactive
Activity (Neurospora sitophila [10]): inactive
inhibition at 0.13 µM (Mucor mucedo [11]): 37%
MIC (Fusarium oxysporum [12]): 0.25 µg/mL (≈ 0.164 µM)
Activity (Fusarium oxysporum [13]): Active
Activity (Fusarium oxysporum [14]): inactive
Activity (Mucor mucedo [15]): Active
MIC (Fusarium graminearum [16]): 0.063 µg/mL (≈ 0.0412 µM)
Activity (Mucor mucedo [17]): inactive
Activity (Staphylococcus aureus): inactive
MIC (Neurospora sitophila [18]): > 1000 µg/mL
Activity (NIH3T3): Non-toxic
inhibition (Mucor mucedo [19]): inactive
MIC (Fusarium solani [20]): 0.25 µg/mL (≈ 0.164 µM)
Activity (Pseudomonas aeruginosa): inactive
Activity (Mucor mucedo [21]): Active
MIC (Aspergillus niger [22]): > 1000 µg/mL
MIC (Fusarium fujikuroi): 0.25 µg/mL (≈ 0.164 µM)
Activity (Bacillus licheniformis): inactive
Activity [23]: Active
Activity (Aspergillus fumigatus): inactive
MIC (Mucor mucedo [24]): 0.013 µM
Activity (Aspergillus niger [25]): inactive
Activity (Fusarium graminearum [26]): inactive
Activity (Fusarium oxysporum [27]): inactive
Activity (Fusarium oxysporum [28]): inactive
Activity (Mucor mucedo [29]): Active
Activity (Mucor javanicus): inactive
Activity (Bacillus subtilis): inactive
MIC [30]: 0.031 µg/mL (≈ 0.0203 µM)
Activity (Fusarium solani [31]): inactive
Activity (Mucor mucedo [32]): Active
Activity (Aspergillus nidulans [33]): inactive
